Reference: the supplement of paper PMC10307832

What was measured:
Assay in all cases: relative viability (nuclei count vs DMSO), 5 days (fraction); higher = more cells survive
RO-3306 + OSI-027 = compound: C1=CC2=C(C=CC(=C2)C=C3C(=O)NC(=NCC4=CC=CS4)S3)N=C1 [RO-3306] + COc1cccc2cc(-c3nc([C@H]4CC[C@H](C(=O)O)CC4)n4ncnc(N)c34)[nH]c12 [OSI-027] (partner 0.5 µM)
How it was run: (§1)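 Dosing by pin tool came one day after lung cancer cell lines were seeded in 1536-well plates, using either one drug or a fixed anchor-drug dose plus five library-drug doses (not always all listed) in √10 steps. After 5 days, nuclei were counted on 4× images. Relative viability is treated-well nuclei count divided by vehicle-well nuclei count, and values are medians of duplicate plates.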

[1] = compound: O=S(=O)(c1ccccc1)N(CC(F)(F)F)c1ccc(C(O)(C(F)(F)F)C(F)(F)F)cc1 + Cc1cc(Nc2cc(N3CCN(C)CC3)nc(Sc3ccc(NC(=O)C4CC4)cc3)n2)n[nH]1 [Tozasertib] (partner 0.1 µM)
How it was run: as §1

RO-3306 + Palbociclib = compound: C1=CC2=C(C=CC(=C2)C=C3C(=O)NC(=NCC4=CC=CS4)S3)N=C1 [RO-3306] + CC(=O)c1c(C)c2cnc(Nc3ccc(N4CCNCC4)cn3)nc2n(C2CCCC2)c1=O [Palbociclib] (partner 0.5 µM)
How it was run: as §1

RO-3306 + Phenformin = compound: C1=CC2=C(C=CC(=C2)C=C3C(=O)NC(=NCC4=CC=CS4)S3)N=C1 [RO-3306] + N=C(N)NC(=N)NCCc1ccccc1 [Phenformin] (partner 250 µM)
How it was run: as §1

Q: With UMC-11 as the cell line, how does the relative viability (RO-3306 + OSI-027; first compound 0.01 µM) read?
A: 0.496

Q: What about the relative viability (RO-3306 + OSI-027; first compound 0.03162 µM) of the same cell line?
A: 0.384

Q: And the relative viability (RO-3306 + OSI-027; first compound 0.1 µM)?
A: 0.456

Q: What about the relative viability (RO-3306 + OSI-027; first compound 0.3162 µM) of the same cell line?
A: 0.552

Q: And the relative viability (RO-3306 + OSI-027; first compound 1 µM)?
A: 0.453

Q: What about the relative viability ([1]; first compound 0.8 µM) of the same cell line?
A: 0.215

Q: And the relative viability ([1]; first compound 2.53 µM)?
A: 0.22

Q: What about the relative viability ([1]; first compound 8 µM) of the same cell line?
A: 0.237

Q: What about the relative viability (RO-3306 + Palbociclib; first compound 0.01 µM) of the same cell line?
A: 0.305

Q: And the relative viability (RO-3306 + Palbociclib; first compound 0.03162 µM)?
A: 0.319

Q: What about the relative viability (RO-3306 + Palbociclib; first compound 0.1 µM) of the same cell line?
A: 0.297

Q: And the relative viability (RO-3306 + Palbociclib; first compound 0.3162 µM)?
A: 0.309

Q: And the relative viability (RO-3306 + Palbociclib; first compound 1 µM)?
A: 0.277

Q: And the relative viability (RO-3306 + Phenformin; first compound 0.01 µM)?
A: 0.351

Q: And the relative viability (RO-3306 + Phenformin; first compound 0.03162 µM)?
A: 0.291

Q: And the relative viability (RO-3306 + Phenformin; first compound 0.1 µM)?
A: 0.3

Q: And the relative viability (RO-3306 + Phenformin; first compound 0.3162 µM)?
A: 0.366

Q: What about the relative viability (RO-3306 + Phenformin; first compound 1 µM) of the same cell line?
A: 0.315
